Values of other authors as cited in US7550593B2, “Process for the preparation of finasteride Form I” (Cipla Limited, priority 2003, dated 2009).

Test system: serum DHT concentration
Conditions: within 24 hours of oral dosing with a 1 mg tablet

SMILES: CC(C)(C)NC(=O)[C@H]1CC[C@H]2[C@@H]3CC[C@H]4NC(=O)C=C[C@]4(C)[C@H]3CC[C@]12C [Finasteride, 17β-(N-t-butylcarbamoyl)-4-aza-5-alpha-androst-1-ene-3-one]
- suppression of serum DHT concentration: 65%
